Laboratory results: ChEMBL document CHEMBL3352085, “In vitro evaluation of potential bitterness-masking terpenoids from the Canada goldenrod (Solidago canadensis)” (J Nat Prod, 2014)

Target: T1, Taste receptor type 2 member 31 (Homo sapiens, UniProt P59538)
T1 sequence (P59538 whole entry): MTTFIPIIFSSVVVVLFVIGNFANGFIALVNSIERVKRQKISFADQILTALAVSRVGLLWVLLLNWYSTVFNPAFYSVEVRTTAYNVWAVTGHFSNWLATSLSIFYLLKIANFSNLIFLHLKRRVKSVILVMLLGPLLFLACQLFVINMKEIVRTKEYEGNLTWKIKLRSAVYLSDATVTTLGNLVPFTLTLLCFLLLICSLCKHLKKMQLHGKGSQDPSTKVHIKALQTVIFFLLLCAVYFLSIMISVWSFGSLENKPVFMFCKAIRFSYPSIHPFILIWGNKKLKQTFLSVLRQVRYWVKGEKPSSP
Assay: Antagonist activity at human TAS2R31 expressed in HEK-293T cells stably expressing Galpha16gust44 assessed as inhibition receptor response to saccharin by fluorescence assay
Format: cell-based

Row | Structure (SMILES) | IC50 [µM]
1 | C=C1CC[C@H]2C(C)(C)[C@@H](OC(C)=O)CC[C@]2(C)[C@H]1CC/C(C)=C/C(=O)O | 8
2 | CC(=O)O[C@H]1CC[C@]2(C)[C@@H](CC/C(C)=C/C(=O)O)C(C)=CC[C@H]2C1(C)C | > 25
